Source: ChEMBL document CHEMBL2380241, “Identification of novel SIRT3 inhibitor scaffolds by virtual screening” (Bioorg Med Chem Lett, 2013)
Activity calls are given as the source filed them. The calls are words filed in the database; no cut-off is given here.

Key:
[1] = target: T1, NAD-dependent protein deacetylase sirtuin-3, mitochondrial (Homo sapiens) (UniProt Q9NTG7); assay: Inhibition of recombinant His-tagged SIRT3 (unknown origin) using Fluor de Lys acetylated KI179 as substrate at 200 uM incubated for 5 mins followed by enzyme addition measured after 1 hr by fluorescence assay relative to control
T1 sequence (whole entry): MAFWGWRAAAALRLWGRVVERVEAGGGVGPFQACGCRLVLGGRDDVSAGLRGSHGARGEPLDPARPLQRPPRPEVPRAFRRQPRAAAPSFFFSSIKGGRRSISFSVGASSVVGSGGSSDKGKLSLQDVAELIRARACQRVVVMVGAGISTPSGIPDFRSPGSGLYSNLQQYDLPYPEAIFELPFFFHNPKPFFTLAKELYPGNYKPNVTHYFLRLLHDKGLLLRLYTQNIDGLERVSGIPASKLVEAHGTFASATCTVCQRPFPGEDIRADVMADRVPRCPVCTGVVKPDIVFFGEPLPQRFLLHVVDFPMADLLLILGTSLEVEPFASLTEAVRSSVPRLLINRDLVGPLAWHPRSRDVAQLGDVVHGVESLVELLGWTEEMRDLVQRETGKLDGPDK

[2] = target: T2, NAD-dependent protein deacetylase sirtuin-2 (Homo sapiens) (UniProt Q8IXJ6); assay: Inhibition of recombinant GST-tagged SIRT2 (unknown origin) using Fluor de Lys acetylated KI179 as substrate at 200 uM incubated for 5 mins followed by enzyme addition measured after 1 hr by fluorescence assay relative to control
T2 sequence (whole entry): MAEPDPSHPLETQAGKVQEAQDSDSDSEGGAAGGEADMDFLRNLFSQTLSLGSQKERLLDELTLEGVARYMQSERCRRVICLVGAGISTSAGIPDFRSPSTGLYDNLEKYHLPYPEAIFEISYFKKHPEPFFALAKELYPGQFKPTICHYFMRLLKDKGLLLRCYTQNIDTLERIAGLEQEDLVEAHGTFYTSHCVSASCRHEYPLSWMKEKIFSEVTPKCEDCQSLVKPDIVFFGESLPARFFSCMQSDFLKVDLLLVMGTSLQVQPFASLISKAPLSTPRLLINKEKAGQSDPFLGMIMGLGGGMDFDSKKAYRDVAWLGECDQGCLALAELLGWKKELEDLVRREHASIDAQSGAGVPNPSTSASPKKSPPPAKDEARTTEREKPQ

[3] = target: T3, NAD-dependent protein deacetylase sirtuin-1 (Homo sapiens) (UniProt Q96EB6); assay: Inhibition of recombinant GST-tagged SIRT1 (unknown origin) using Fluor de Lys acetylated KI177 as substrate at 200 uM incubated for 5 mins followed by enzyme addition measured after 1 hr by fluorescence assay relative to control
T3 sequence (whole entry): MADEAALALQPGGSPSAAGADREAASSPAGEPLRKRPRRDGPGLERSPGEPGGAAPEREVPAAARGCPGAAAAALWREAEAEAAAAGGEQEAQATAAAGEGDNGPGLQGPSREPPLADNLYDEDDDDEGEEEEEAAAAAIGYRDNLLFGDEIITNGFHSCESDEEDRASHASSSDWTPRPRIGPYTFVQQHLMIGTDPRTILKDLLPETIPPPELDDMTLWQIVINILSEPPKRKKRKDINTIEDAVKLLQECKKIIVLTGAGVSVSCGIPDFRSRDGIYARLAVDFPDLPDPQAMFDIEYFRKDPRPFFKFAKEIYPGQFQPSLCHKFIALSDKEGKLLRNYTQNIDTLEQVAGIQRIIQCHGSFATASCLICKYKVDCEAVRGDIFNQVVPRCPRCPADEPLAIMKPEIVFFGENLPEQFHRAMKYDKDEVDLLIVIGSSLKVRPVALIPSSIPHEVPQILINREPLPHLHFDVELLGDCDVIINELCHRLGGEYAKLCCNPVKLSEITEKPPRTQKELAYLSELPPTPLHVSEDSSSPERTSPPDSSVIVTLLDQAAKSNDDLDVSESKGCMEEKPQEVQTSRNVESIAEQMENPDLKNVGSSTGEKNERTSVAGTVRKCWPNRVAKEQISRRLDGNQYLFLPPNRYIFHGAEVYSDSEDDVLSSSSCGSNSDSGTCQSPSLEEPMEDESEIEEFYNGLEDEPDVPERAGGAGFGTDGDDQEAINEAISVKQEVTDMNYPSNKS

| SMILES | inhibition [1] [%] | inhibition [2] [%] | inhibition [3] |
| --- | --- | --- | --- |
| O=C(Cc1ccccc1)Nc1ccc2oc(-c3ccccc3Br)nc2c1 | 33 |  |  |
| Cc1ccc(N2C(=O)CC(N3CCN(c4ccc(F)cc4)CC3)C2=O)cc1 (stereo not given) | 6.6 |  |  |
| COc1ccc(CCNC2CC(=O)N(CCc3ccc(OC)c(OC)c3)C2=O)cc1OC (stereo not given) | 16 |  |  |
| O=C(Cc1ccccc1)Nc1ccc2oc(-c3ccccc3Cl)nc2c1 | 51 | 44 | 17% |
| O=C(CSCC(=O)Nc1ccc2ccccc2c1)NCc1ccccc1 | 6.3 |  |  |
| CCOc1ccc(N2C(=O)CC(N3CCN(C(=O)c4ccccc4)CC3)C2=O)cc1 (stereo not given) | 5 |  |  |
| Cc1cccc(N2C(=O)CC(N3CCN(c4cccc(C(F)(F)F)c4)CC3)C2=O)c1 (stereo not given) | 13 |  |  |
| NS(=O)(=O)c1ccc(NC(=O)COC(=O)CN2C(=O)C(=O)c3ccccc32)cc1 | 34 |  |  |
| COc1cccc(-c2nc3cc(NC(=O)Cc4ccccc4)ccc3o2)c1 | 44 |  |  |
| CCOc1ccc(N2C(=O)CC(N3CCN(C(=O)c4cccnc4)CC3)C2=O)cc1 (stereo not given) | 10 |  |  |
| O=C(Cc1ccc(Cl)cc1)Nc1ccc2oc(-c3ccccc3F)nc2c1 | 17 |  |  |
| O=C(Cc1ccc(Cl)cc1)Nc1ccc2oc(-c3ccccc3Br)nc2c1 | 32 |  |  |
| O=C(NCC1CCN(Cc2ccccc2Cl)CC1)Nc1cccc(Cl)c1 | 7.5 |  |  |
| O=C1C(Cl)=C(Nc2cccc(O)c2)C(=O)N1CCc1ccccc1 | 72 |  |  |
| O=C(c1ccccc1)N1CCN(C2CC(=O)N(c3cccc(Cl)c3)C2=O)CC1 (stereo not given) | 11 |  |  |
| O=C(Cc1ccccc1)Nc1ccc2oc(-c3cc(Cl)ccc3Cl)nc2c1 | 65 | 73 | 33% |
| Cc1ccccc1CC1CCN(CCCNC(=O)Nc2ccccc2)CC1 | 10 |  |  |
| O=C1CC(N2CCN(c3ccc(F)cc3)CC2)C(=O)N1Cc1ccccc1 (stereo not given) | 6.9 |  |  |
| COc1ccc(N2C(=O)CC(N3CCN(c4ccc(S(C)(=O)=O)cc4)CC3)C2=O)cc1 (stereo not given) | 5.6 |  |  |
| COc1ccc(N2C(=O)CC(NCCc3ccc(S(N)(=O)=O)cc3)C2=O)cc1 (stereo not given) | 7.6 |  |  |
| O=C(Cc1ccccc1)Nc1ccc2oc(-c3cccc(Cl)c3Cl)nc2c1 | 48 | 40 | 19% |
| O=C(CCC(=O)Nc1ccc(F)c(Cl)c1)Nc1ccc(F)c(Cl)c1 | 1.9 |  |  |
| COc1cccc(-c2noc(CCC(=O)Nc3ccc(NC(C)=O)cc3)n2)c1 | 6.8 |  |  |
| O=C(/C=C/c1ccccc1)Nc1ccc2oc(-c3ccccc3F)nc2c1 | 38 |  |  |

| SMILES | inhibition [1] [%] | inhibition [2] [%] | inhibition [3] |
| --- | --- | --- | --- |
| Cc1ccc(-c2nc3cc(NC(=O)Cc4ccccc4)ccc3o2)cc1 | 17 |  |  |
| Cc1cccc(-c2nc3cc(NC(=O)Cc4ccccc4)ccc3o2)c1 | 32 |  |  |
| O=C(CSc1ncnc2c1oc1ccccc12)Nc1cccc(O)c1 | 39 | 35 | inactive |
| O=C1CC(N2CCN(c3cccc(C(F)(F)F)c3)CC2)C(=O)N1c1ccc(I)cc1 (stereo not given) | 11 |  |  |
| O=C1CC(N2CCC(Cc3ccccc3)CC2)C(=O)N1c1ccc(F)cc1 (stereo not given) | 15 |  |  |
| O=C1CC(N2CCN(c3ccc(F)cc3)CC2)C(=O)N1c1ccc2c(c1)OCO2 (stereo not given) | 6.4 |  |  |
| O=C1CC(N2CCN(c3ccc(Cl)cc3)CC2)C(=O)N1c1ccc(F)cc1 (stereo not given) | 9.2 |  |  |
| O=C(Cc1ccccc1)Nc1ccc2oc(-c3ccc(Cl)cc3Cl)nc2c1 | 71 | 72 | 27% |
| Cc1ccc(NC(=O)NCC2CCN(Cc3cc(C)ccc3Cl)CC2)c(C)c1 | 7.5 |  |  |
| O=C(Nc1ccc(Nc2ccccc2)cc1)c1c(Cl)cccc1Cl | 22 |  |  |
| O=C1CC(N2CCN(c3cccc(C(F)(F)F)c3)CC2)C(=O)N1c1cccc(Cl)c1 (stereo not given) | 13 |  |  |
| NS(=O)(=O)c1ccc(CCNC2CC(=O)N(c3ccc(Cl)c(Cl)c3)C2=O)cc1 (stereo not given) | 11 |  |  |
| Cc1cccc(CN2CCC(CNC(=O)NCc3ccc(F)cc3)CC2)c1 | 5.6 |  |  |
| O=C(/C=C/c1ccccc1)Nc1ccc2oc(-c3ccccc3Cl)nc2c1 | 48 | 78 | 27% |
| O=C1CC(N2CCN(c3cccc(C(F)(F)F)c3)CC2)C(=O)N1c1ccc(Cl)cc1 (stereo not given) | 20 |  |  |
| O=C(Cc1ccccc1)Nc1ccc2oc(-c3ccc(Cl)cc3)nc2c1 | 13 |  |  |
| O=C(Cc1ccccc1)Nc1ccc2oc(-c3cccc(Cl)c3)nc2c1 | 17 |  |  |
| O=C1CC(N2CCN(c3ccc(O)cc3)CC2)C(=O)N1c1ccccc1 (stereo not given) | 6.5 |  |  |
| O=C(Cc1ccccc1)Nc1ccc2oc(-c3ccccc3F)nc2c1 | 16 |  |  |
| O=C(Cc1ccccc1)Nc1ccc2oc(-c3ccc(F)cc3Cl)nc2c1 | 13 |  |  |
| COc1ccc(N2C(=O)CC(N3CCN(c4ccccc4O)CC3)C2=O)cc1 (stereo not given) | 8.4 |  |  |
| O=C(Cc1ccccc1)Nc1ccc2oc(-c3cc(F)c(F)cc3Cl)nc2c1 | 41 |  |  |
| CC(=O)Nc1ccc(NC(=O)CCC(=O)OCC(=O)c2cccc([N+](=O)[O-])c2)cc1 | 6.7 |  |  |
| O=C1CC(N2CCN(c3ccc([N+](=O)[O-])cc3)CC2)C(=O)N1c1ccccc1 (stereo not given) | 74 |  |  |
